This note sets out measurements from patent publication US12162872B2, “Cycloalkylurea derivative” (Sumitomo Pharma Co., Ltd., priority 2019, dated 2024).

This assay concerns the target T1, Human orexin receptor type 2 (Homo sapiens, UniProt O43614).
T1 construct: expressed in transfected cells; host or cells: CHO cells (transient expression)
T1 sequence (O43614 1-444): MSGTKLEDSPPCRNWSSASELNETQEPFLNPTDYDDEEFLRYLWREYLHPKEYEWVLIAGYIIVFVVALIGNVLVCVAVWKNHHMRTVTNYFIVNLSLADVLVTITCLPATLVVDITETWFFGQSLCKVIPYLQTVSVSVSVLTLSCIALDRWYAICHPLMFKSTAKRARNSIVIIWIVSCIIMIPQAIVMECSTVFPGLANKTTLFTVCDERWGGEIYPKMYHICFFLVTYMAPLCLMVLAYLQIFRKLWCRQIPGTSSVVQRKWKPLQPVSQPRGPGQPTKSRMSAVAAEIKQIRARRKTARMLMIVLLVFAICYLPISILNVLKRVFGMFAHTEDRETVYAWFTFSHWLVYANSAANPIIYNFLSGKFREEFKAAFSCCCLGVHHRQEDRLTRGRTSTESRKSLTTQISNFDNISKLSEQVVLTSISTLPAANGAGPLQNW
The assay is described as follows: Test 2: Evaluation of agonist activity for orexin receptor type 2 (aequorin luminescence, intracellular calcium mobilization in CHO cells). The assay is classed as cell-based. Conditions: relative percentage of luminescence for the luminescence (100%) of Orexin A (100 pM), CHO cells transiently expressing human orexin receptor type 2 and apoaequorin, Orexin A Lot. 671009. The method, boiled down:
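CHO cells transiently co-expressing the receptor and apoaequorin, incubated 16–22 h, were loaded 2 h at room temperature with 1 μM coelenterazine hcp (final). Compounds in Hanks/20 mM HEPES/0.1% BSA (0.1% DMSO final) were added and the calcium luminescence was read and expressed as % of Orexin A (100 pM).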

Turning to `CN(CC1(C)CC1)C1CCN([C@H]2CCCC(F)(F)[C@@H]2NC(=O)N2CCC(C)(c3noc([C@@H]4C[C@@H]4F)n3)CC2)CC1` [Example 134, N-[(1R,6S)-2,2-difluoro-6-(4-{methyl[(1-methylcyclopropyl)methyl]amino}piperidin-1-yl)cyclohexyl]-4-{5-[(1S,2S)-2-fluorocyclopropyl]-1,2,4-oxadiazol-3-yl}-4-methylpiperidine-1-carboxamide], the “agonist activity (%)” value is recorded as 456%.
Still for that read-out and setting: as for `CC1(c2noc([C@@H]3C[C@@H]3F)n2)CCN(C(=O)N[C@@H]2[C@@H](O[C@H]3CCN(CC4(C(F)(F)F)CC4)C3)CCCC2(F)F)CC1` [Example 135, N-[(1R,6S)-2,2-difluoro-6-{[(3S)-1-{[1-(trifluoromethyl)cyclopropyl]methyl}pyrrolidin-3-yl]oxy}cyclohexyl]-4-{5-[(1S,2S)-2-fluorocyclopropyl]-1,2,4-oxadiazol-3-yl}-4-methylpiperidine-1-carboxamide], the figure is 396%; as for `CN(CC1(F)CC1)C1CCN([C@H]2CCCC(F)(F)[C@@H]2NC(=O)N2CCC(C)(c3noc([C@@H]4C[C@@H]4F)n3)CC2)CC1` [Example 136, N-[(1R,6S)-2,2-difluoro-6-(4-{[(1-fluorocyclopropyl)methyl](methyl)amino}piperidin-1-yl)cyclohexyl]-4-{5-[(1S,2S)-2-fluorocyclopropyl]-1,2,4-oxadiazol-3-yl}-4-methylpiperidine-1-carboxamide], 346%; as for `CN(CC1CC1)[C@H]1CCN([C@H]2CCCC(F)(F)[C@@H]2NC(=O)N2CCC(C)(c3noc([C@@H]4C[C@@H]4F)n3)CC2)C1` [Example 137, N-[(1R,6S)-6-{(3S)-3-[(cyclopropylmethyl)(methyl)amino]pyrrolidin-1-yl}-2,2-difluorocyclohexyl]-4-{5-[(1S,2S)-2-fluorocyclopropyl]-1,2,4-oxadiazol-3-yl}-4-methylpiperidine-1-carboxamide], 376%.
Same read-out and setting: in the case of `CN(CC1CC1)[C@H]1CCN([C@H]2CCCC(F)(F)[C@@H]2NC(=O)N2CCC(C)(c3noc(C4CC4)n3)CC2)C1` [Example 138, N-[(1R,6S)-6-{(3S)-3-[(cyclopropylmethyl)(methyl)amino]pyrrolidin-1-yl}-2,2-difluorocyclohexyl]-4-(5-cyclopropyl-1,2,4-oxadiazol-3-yl)-4-methylpiperidine-1-carboxamide] it was 385%; in that of `CN(CC1(C(F)(F)F)CC1)C1CCN([C@H]2CCCC(F)(F)[C@@H]2NC(=O)N2CCC(C)(c3noc([C@@H]4C[C@@H]4F)n3)CC2)CC1` [Example 140, N-{(1R,6S)-2,2-difluoro-6-[4-(methyl{[1-(trifluoromethyl)cyclopropyl]methyl}amino)piperidin-1-yl]cyclohexyl}-4-{5-[(1S,2S)-2-fluorocyclopropyl]-1,2,4-oxadiazol-3-yl}-4-methylpiperidine-1-carboxamide], 249%.
Take `CN(CC1CC1)C1C[C@H]2CC[C@@H](C1)N2[C@H]1CCCC(F)(F)[C@@H]1NC(=O)N1CCC(C)(c2noc([C@@H]3C[C@@H]3F)n2)CC1` (stereo partly drawn) [Example 141, N-[(1R,6S)-6-{(1R,3R,5S)-3-[(cyclopropylmethyl)(methyl)amino]-8-azabicyclo[3.2.1]octan-8-yl}-2,2-difluorocyclohexyl]-4-{5-[(1S,2S)-2-fluorocyclopropyl]-1,2,4-oxadiazol-3-yl}-4-methylpiperidine-1-carboxamide]: the “agonist activity (%)” value (0.0001 µM) is 405%.
Still for that read-out and setting: as for `CN(CC1CC1)C1C[C@H]2CC[C@@H](C1)N2[C@H]1CCCC(F)(F)[C@@H]1NC(=O)N1CCC(C)(c2noc([C@@H]3C[C@@H]3F)n2)CC1` (stereo partly drawn) [Example 142, N-[(1R,6S)-6-{(1R,3S,5S)-3-[(cyclopropylmethyl)(methyl)amino]-8-azabicyclo[3.2.1]octan-8-yl}-2,2-difluorocyclohexyl]-4-{5-[(1S,2S)-2-fluorocyclopropyl]-1,2,4-oxadiazol-3-yl}-4-methylpiperidine-1-carboxamide], the figure is 407%.
